The values that follow come from PMC10731637, “Design, Synthesis, and Biological Studies of Flavone-Based Esters and Acids as Potential P450 2A6 Inhibitors” (Chemical Research in Toxicology, 2023).

The term IC50 denotes the concentration that inhibits the measured activity by half.

This assay concerns the target T1, Cytochrome P450 2A6 (CYP2A6) (Homo sapiens, UniProt P11509).
T1 sequence (P11509 1-494): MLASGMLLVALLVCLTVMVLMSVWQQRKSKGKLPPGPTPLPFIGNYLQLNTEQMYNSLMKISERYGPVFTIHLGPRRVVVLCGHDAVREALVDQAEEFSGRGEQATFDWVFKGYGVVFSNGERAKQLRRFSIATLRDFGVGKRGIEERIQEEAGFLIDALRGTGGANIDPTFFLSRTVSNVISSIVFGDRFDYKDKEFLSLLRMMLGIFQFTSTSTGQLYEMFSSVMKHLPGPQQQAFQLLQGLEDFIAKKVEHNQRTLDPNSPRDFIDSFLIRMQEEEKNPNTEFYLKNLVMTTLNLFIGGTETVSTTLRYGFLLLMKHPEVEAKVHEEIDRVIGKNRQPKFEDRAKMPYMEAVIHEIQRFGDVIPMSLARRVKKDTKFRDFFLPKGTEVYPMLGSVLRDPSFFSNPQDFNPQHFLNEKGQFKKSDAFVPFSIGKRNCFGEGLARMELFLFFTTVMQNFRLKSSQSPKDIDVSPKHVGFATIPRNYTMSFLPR
The experiment in a line: Vivid CYP450 fluorescence inhibition assay with CYP2A6 baculosomes, 10-point dose-response. Type of assay: biochemical.
As to `O=C(O)COc1ccccc1-c1cc(=O)c2ccccc2o1` [compound 6, 2-(2-(4-Oxo-4H-chromen-2-yl)phenoxy)acetic Acid], the IC50 stood at 1.57 µM.

In the case of `CCOC(=O)COc1ccccc1-c1cc(=O)c2ccccc2o1` [compound 1, Ethyl 2-(2-(4-Oxo-4H-chromen-2-yl)phenoxy)acetate], the IC50 is 37.9 µM.

`CCOC(=O)COc1c(-c2ccccc2)oc2ccccc2c1=O` [compound 2, Ethyl 2-((4-Oxo-2-phenyl-4H-chromen-3-yl)oxy)acetate]: 4.61 µM corresponded to half-maximal inhibition (IC50). Against the preceding compound, the IC50 is about 8.2-fold lower.
